Values of other authors as cited in patent US20130210878A1, “BENDAMUSTINE COMPOSITIONS AND METHODS THEREFORE” (Innopharma, Inc., priority 2012, published 2013).
Read-outs that look alike come from different tables or passages of the source.

Conditions: 0.25 mg/ml in 0.9% sodium chloride

Which time stable (4° C.) does the source give for Cl.Cn1c(CCCC(=O)O)nc2cc(N(CCCl)CCCl)ccc21 [Bendamustine HCl, 1H-benzimidazole-2-butanoic acid, 5-[bis(2-chloro-ethyl)amino]-1 methyl-, monohydrochloride] here?
The time stable was 4 days.

What about the time stable (23° C.) of the same molecule?
Its time stable is 0.38 days.
